Patent publication US7223583B2, “Antithrombotic thrombin variants” (Emory University, priority 2001, dated 2007)
Residues, ends and D or L forms follow the SMILES beside them. *: point of attachment. pNA = O=[N+]([O-])c1ccc(N*)cc1

Columns and labels:
Format in all cases: biochemical
[1] = molecular target: T1, human thrombin, variant E217A (Homo sapiens, UniProt P00734, E592A); test: Hydrolysis of chromogenic substrate (progress curves of the release of p-nitroaniline at 405 nm), Example 4; conditions: E217A; 5 mM Tris, 0.1% PEG, 145 mM NaCl, pH 7.4, 37° C.
T1 construct: the B chain of thrombin commences with I1 and extends to E259
Experimental: (§1) All assays were carried out under experimental conditions of 5 mM Tris, 0.1% PEG, 145 mM NaCl, pH 7.4 at 37° C. The chromogenic substrates H-D-Phe-Pro-Arg-p-nitroanilide specific for thrombin and H-D-Asp-Arg-Arg-p-nitroanilide specific for activated protein C were purchased from Midwest Bio-Tech (Carmel, Ind.). The values of kcat/Km and kcat were obtained from the analysis of progress curves of the release of p-nitroaniline (measured at 405 nm) as a function of substrate concentration taking into account product inhibition, when present. The interaction of thrombin with fibrinogen and fibrin was studied in terms of the release of fibrinopeptides A and B as described by Vindigni & Di Cera. Biochemistry 35: 4417-4426 (1996) incorporated herein by reference in its entirety. The interaction of thrombin with PAR-1 was studied from the kinetics of cleavage of a soluble fragment corresponding to the extracellular portion of the receptor, as detailed in Arosio et al. Biochemistry 39: 8095-8101 (2000) incorporated herein by reference in its entirety. The inhibition of thrombin by antithrombin III in the presence of heparin, and the activation of protein C in the presence or absence of rabbit thrombomodulin were carried out and analyzed as described in Dang et al. Nat. Biotechnol. 15: 146-149 (1997).

[2] = system: human thrombin, variant E217A; test: as above; conditions: E217A thrombin mutant (Gibbs et al.)
Experimental: as §1

[3] = molecular target: T2, human thrombin, variant W215A, SEQ ID NO: 1 (Homo sapiens, UniProt P00734, W590A); test: Hydrolysis of chromogenic substrates (release of p-NA at 405 nm), Example 3; conditions: 5 mM Tris, 0.1% PEG, 200 mM NaCl, pH 8.0, 25° C.
T2 construct: The B chain commences with I1 and extends to E259; made in house; host or cells: baby hamster kidney cells
Experimental: Site-directed mutagenesis of human α-thrombin was carried out in a HPC4-pNUT expression vector as described in Arosio et al. Biochemistry 39: 8095-8101 (2000) and incorporated herein by reference in its entirety, using overlap extension PCR with two mutant oligonucleotides: upstream: 5-GGGCATCGTCTCAXXXGGTGAAGGCTG TG-3(SEQ ID NO: 7); downstream: 5-CACAGCCTTCACCXXXTGAGACGATGCCC-3 (SEQ ID NO: 8) and two flanking oligonucleotide primers, BgIII (upstream): 5-[…]-3 (SEQ ID NO: 9 and; EcoRI (downstream): 5-[…]-3 (SEQ ID NO: 10). For the generation of the double mutant variant W215A/E217A (WE) thrombin, the forward primer 5′-[…]-3′ (SEQ ID NO: 11) and the reverse primer 5′-[…]-3′ (SEQ ID NO: 12) were used. Expression of the variant thrombins was carried out in baby hamster kidney cells as described in Guinto et al. Proc. Natl. Acad. Sci. U.S.A. 96: 1852-1857 (1999) incorporated herein by reference in its entirety. The enzyme was activated with the prothrombinase complex for about 30 mins. at 37° C. and then purified to homogeneity by monoS FPLC using a linear gradient of 0.05 to 0.5 M NaCl in 5 mM MES (pH 6) at room temperature. Mutants were further checked for incomplete refolding or autolytic digestion by N-terminal amino acid sequencing. Electrospray mass spectrometry yielded molecular weights consistent with the mutations introduced and indicated identical glycosylation in wild-type and mutant constructs.
All assays were carried out under experimental conditions of 5 mM Tris, 0.1% PEG, 145 mM NaCl, pH 7.4 at 37° C., unless otherwise specified. The chromogenic substrates FPR and LDPR were synthesized by solid phase, purified by HPLC and analyzed by mass spectrometry. Progress curves of the release of p-NA following the hydrolysis of chromogenic substrate were measured at 405 nm as a function of substrate concentration and analyzed to extract the values of kcat/Km and kcat, after proper correction for product inhibition. […] Biotechnol. 15: 146-149 (1997) and incorporated herein by reference in its entirety.

[4] = molecular target: T3, human thrombin, wild-type (WT) (Homo sapiens, UniProt P00734); test: as above; conditions: 5 mM Tris, 0.1% PEG, 200 mM NaCl, pH 8.0, 25° C.
T3 construct: the B chain of thrombin commences with I1 and extends to E259; made in house
Experimental: Citrated plasma was diluted 1:1 with isotonic saline, and the thrombin analogs were diluted with 0.1 M NaCl, 0.01 M CaCl2, 0.02 M Tris, pH 7.3 prior to testing. 100 μl of thrombin analog was then added to 200 μl of baboon plasma and the clotting time was determined using a fibrometer.
The chromogenic substrates FPR and LDPR were synthesized by solid phase, purified by HPLC and analyzed by mass spectrometry. Progress curves of the release of p-NA following the hydrolysis of chromogenic substrate were measured at 405 nm as a function of substrate concentration and analyzed to extract the values of kcat/Km and kcat, after proper correction for product inhibition. […] Biotechnol.

[5] = molecular target: T4, human thrombin, variant W215A/E217A (WE), SEQ ID NO: 3 (Homo sapiens, UniProt P00734, E592A/W590A); test: Hydrolysis of chromogenic substrate (progress curves of the release of p-nitroaniline at 405 nm), Example 4; conditions: W215A/E217A (WE); 5 mM Tris, 0.1% PEG, 145 mM NaCl, pH 7.4, 37° C.
T4 construct: The B chain commences with I1 and extends to E259; made in house; host or cells: baby hamster kidney cells
Experimental: (§2) Site-directed mutagenesis of human α-thrombin was carried out in a HPC4-pNUT expression vector as described in Arosio et al. Biochemistry 39: 8095-8101 (2000) and incorporated herein by reference in its entirety, using overlap extension PCR with two mutant oligonucleotides: upstream: 5-GGGCATCGTCTCAXXXGGTGAAGGCTG TG-3(SEQ ID NO: 7); downstream: 5-CACAGCCTTCACCXXXTGAGACGATGCCC-3 (SEQ ID NO: 8) and two flanking oligonucleotide primers, BgIII (upstream): 5-[…]-3 (SEQ ID NO: 9 and; EcoRI (downstream): 5-[…]-3 (SEQ ID NO: 10). For the generation of the double mutant variant W215A/E217A (WE) thrombin, the forward primer 5′-[…]-3′ (SEQ ID NO: 11) and the reverse primer 5′-[…]-3′ (SEQ ID NO: 12) were used. […]
(§3) All assays were carried out under experimental conditions of 5 mM Tris, 0.1% PEG, 145 mM NaCl, pH 7.4 at 37° C. […] The values of kcat/Km and kcat were obtained from the analysis of progress curves of the release of p-nitroaniline (measured at 405 nm) as a function of substrate concentration taking into account product inhibition, when present. […] The inhibition of thrombin by antithrombin III in the presence of heparin, and the activation of protein C in the presence or absence of rabbit thrombomodulin were carried out and analyzed as described in Dang et al. Nat. […]

[6] = system: human thrombin, variant W215A/E217A (WE), SEQ ID NO: 3; test: as above; conditions: W215A/E217A (WE) thrombin double mutant
Experimental: as §2, §3

[7] = molecular target: T3, human thrombin, wild-type (WT); test: as above; conditions: 5 mM Tris, 0.1% PEG, 145 mM NaCl, pH 7.4, 37° C.
Source text: WT, W215A and WE variant thrombins were expressed, purified, and characterized in detail as described by Cantwell & Di Cera. J. Biol. Chem. 275: 39827-39830 (2000), incorporated herein by reference in its entirety. WE was stored in aliquots frozen until used in the thrombosis or coagulation experiments. To confirm that injection of variant thrombin WE would be at least as safe as injection of WT in baboons, the procoagulant activities of the two thrombins were compared in baboon plasma prepared by pooling citrated plasma samples from five animals. Citrated plasma was diluted 1:1 with isotonic saline, and the thrombin analogs were diluted with 0.1 M NaCl, 0.01 M CaCl2, 0.02 M Tris, pH 7.3 prior to testing. 100 μl of thrombin analog was then added to 200 μl of baboon plasma and the clotting time was determined using a fibrometer. […]
as §3

[8] = kcat could not be estimated due to the very high Km

| kcat/Km (H-D-Phe-Pro-Arg-p-nitroanilide) [1] | drop of kcat/Km for the hydrolysis of H-D-Phe-Pro-Arg-p-nitroanilide [2] | kcat (FPR) [3] | kcat/Km (FPR) [3] | kcat (FPR) [4] | kcat/Km (FPR) [4] | kcat/Km (H-D-Phe-Pro-Arg-p-nitroanilide) [5] | kcat/Km (H-D-Phe-Pro-Arg-p-nitroanilide) [7] | Structure (SMILES) | cleavage of H-D-Phe-Pro-Arg-p-nitroanilide compromised [6] | kcat/Km (LDPR) [3, 8] | kcat/Km (LDPR) [4, 8] |
| --- | --- | --- | --- | --- | --- | --- | --- | --- | --- | --- | --- |
| 3.8e+06 ± 300000 M⁻¹ s⁻¹ | over 25 fold | 43 ± 2 s⁻¹ | 910000 ± 10000 M⁻¹ s⁻¹ | 56 ± 3 s⁻¹ | 8.8e+07 ± 4e+06 M⁻¹ s⁻¹ | 2800 ± 100 M⁻¹ s⁻¹ | 9.7e+07 ± 5e+06 M⁻¹ s⁻¹ | NC(N)=NCCC[C@H](NC(=O)[C@@H]1CCCN1C(=O)[C@H](N)Cc1ccccc1)C(=O)Nc1ccc([N+](=O)[O-])cc1 [FPR, H-D-Phe-Pro-Arg-p-nitroanilide] | over 30,000 fold | – | – |
| – | – | – | – | – | – | – | – | CC(C)C[C@H](N)C(=O)N[C@@H](CC(=O)O)C(=O)N1CCC[C@H]1C(=O)N[C@@H](CCCN=C(N)N)C(=O)Nc1ccc([N+](=O)[O-])cc1 [LDPR, H-L-Leu-Asp-Pro-Arg-p-nitroanilide] (H-LDPR-pNA) | – | 25000 ± 1000 M⁻¹ s⁻¹ | 4.7e+06 ± 900000 M⁻¹ s⁻¹ |
